From patent US10479795B2 (Incyte Corporation, priority 2016, dated 2019)
Counter-ions that a name gives are not always drawn. Like-named read-outs stand apart in the source and are kept apart here.

Columns and labels:
[1] = tested on: Phosphorylated Ribosomal Protein S6 (RPS6); assay: THP-1 RPS6 ELISA Assay; format: cell-based, Human; conditions: THP-1 cells, read-out: PI3Kγ_THP1_RPS6_ELISA IC50
Outline: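 IC50 values come from a curve of percent inhibition against log compound concentration, using phospho-RPS6 ELISA (450 nm) on THP-1 lysates. Cells were serum-starved overnight, exposed to compound for 2 h at 37 °C, then challenged 15 min with 10 nM MCP-1.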

[2] = biological target: PI3Kγ (p110γ) Recombinant Human Protein (Homo sapiens (Human), UniProt P48736); assay: PI3K-γ Scintillation Proximity Assay; format: biochemical; conditions: read-out: PI3Kγ IC50
Sequence of PI3Kγ (p110γ) Recombinant Human Protein (P48736 whole entry): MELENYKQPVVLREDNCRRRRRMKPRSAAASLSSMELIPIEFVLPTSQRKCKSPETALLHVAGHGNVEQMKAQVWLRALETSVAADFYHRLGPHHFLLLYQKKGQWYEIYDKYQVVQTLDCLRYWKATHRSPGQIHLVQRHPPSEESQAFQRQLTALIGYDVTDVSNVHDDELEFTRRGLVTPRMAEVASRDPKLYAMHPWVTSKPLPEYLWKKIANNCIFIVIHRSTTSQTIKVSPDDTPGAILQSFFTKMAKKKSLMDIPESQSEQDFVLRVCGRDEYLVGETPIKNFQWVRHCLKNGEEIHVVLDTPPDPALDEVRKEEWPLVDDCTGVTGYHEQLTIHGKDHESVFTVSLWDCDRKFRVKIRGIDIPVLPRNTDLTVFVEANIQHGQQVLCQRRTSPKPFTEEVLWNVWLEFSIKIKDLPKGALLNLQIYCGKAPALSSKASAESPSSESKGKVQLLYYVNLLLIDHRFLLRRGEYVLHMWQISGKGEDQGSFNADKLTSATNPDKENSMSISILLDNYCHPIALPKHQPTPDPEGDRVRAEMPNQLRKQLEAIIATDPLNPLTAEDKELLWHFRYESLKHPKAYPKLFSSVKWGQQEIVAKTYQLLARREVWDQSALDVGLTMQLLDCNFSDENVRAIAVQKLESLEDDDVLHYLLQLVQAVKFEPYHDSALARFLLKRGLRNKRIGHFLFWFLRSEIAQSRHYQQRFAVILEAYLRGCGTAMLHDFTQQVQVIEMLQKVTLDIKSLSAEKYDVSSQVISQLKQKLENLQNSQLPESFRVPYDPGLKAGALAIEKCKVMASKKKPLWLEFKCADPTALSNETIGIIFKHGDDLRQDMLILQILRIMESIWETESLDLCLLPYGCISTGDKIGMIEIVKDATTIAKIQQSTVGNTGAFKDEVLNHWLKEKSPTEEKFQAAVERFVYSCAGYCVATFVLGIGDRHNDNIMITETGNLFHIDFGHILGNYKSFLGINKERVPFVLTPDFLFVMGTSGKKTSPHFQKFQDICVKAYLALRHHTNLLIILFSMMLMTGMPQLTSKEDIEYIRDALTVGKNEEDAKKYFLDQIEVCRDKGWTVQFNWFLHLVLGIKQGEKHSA
Outline: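 Radiometric SPA readout: […] bound to WGA beads after overnight shaking, IC50 derived from % activity of DMSO control. Reaction used human p110γ, 2 μM ATP, 20 μM PIP2, pH 6.7 MOPS buffer with MgCl2, DTT, CHAPS, 2% DMSO, room temperature.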

[3] = biological target: PI3Kδ (p110δ/p85α) Recombinant Human Protein (Homo sapiens (Human), UniProt O00329); assay: PI3Kδ Scintillation Proximity Assay; format: biochemical
Sequence of PI3Kδ (p110δ/p85α) Recombinant Human Protein (O00329 whole entry): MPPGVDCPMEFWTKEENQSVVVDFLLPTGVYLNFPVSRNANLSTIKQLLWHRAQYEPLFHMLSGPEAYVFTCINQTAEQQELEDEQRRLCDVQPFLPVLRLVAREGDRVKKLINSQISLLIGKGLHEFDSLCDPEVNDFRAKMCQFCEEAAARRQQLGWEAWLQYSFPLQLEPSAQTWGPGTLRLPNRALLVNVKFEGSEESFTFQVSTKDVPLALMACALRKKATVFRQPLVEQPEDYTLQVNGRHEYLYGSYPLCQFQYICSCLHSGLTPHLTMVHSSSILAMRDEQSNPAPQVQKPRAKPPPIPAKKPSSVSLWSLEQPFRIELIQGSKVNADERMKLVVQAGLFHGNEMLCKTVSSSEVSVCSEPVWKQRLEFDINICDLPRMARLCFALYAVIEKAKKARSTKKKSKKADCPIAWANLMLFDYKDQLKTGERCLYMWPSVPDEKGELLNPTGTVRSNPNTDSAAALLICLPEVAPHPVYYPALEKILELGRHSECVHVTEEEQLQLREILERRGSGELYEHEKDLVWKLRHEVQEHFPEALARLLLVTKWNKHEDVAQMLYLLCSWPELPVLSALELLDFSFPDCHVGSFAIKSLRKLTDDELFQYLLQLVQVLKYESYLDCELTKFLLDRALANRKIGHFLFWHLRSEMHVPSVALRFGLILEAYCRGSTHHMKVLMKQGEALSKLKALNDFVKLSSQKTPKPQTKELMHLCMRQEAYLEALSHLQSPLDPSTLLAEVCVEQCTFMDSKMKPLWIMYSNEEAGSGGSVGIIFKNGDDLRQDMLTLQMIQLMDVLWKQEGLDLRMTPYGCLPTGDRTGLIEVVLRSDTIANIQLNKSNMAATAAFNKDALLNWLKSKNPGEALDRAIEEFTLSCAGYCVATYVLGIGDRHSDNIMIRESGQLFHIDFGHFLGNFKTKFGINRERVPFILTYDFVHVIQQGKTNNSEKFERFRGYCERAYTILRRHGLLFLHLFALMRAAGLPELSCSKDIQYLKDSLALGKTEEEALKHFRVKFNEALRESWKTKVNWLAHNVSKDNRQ
Sequence of PI3Kδ (p110δ/p85α) Recombinant Human Protein (P27986 whole entry partner): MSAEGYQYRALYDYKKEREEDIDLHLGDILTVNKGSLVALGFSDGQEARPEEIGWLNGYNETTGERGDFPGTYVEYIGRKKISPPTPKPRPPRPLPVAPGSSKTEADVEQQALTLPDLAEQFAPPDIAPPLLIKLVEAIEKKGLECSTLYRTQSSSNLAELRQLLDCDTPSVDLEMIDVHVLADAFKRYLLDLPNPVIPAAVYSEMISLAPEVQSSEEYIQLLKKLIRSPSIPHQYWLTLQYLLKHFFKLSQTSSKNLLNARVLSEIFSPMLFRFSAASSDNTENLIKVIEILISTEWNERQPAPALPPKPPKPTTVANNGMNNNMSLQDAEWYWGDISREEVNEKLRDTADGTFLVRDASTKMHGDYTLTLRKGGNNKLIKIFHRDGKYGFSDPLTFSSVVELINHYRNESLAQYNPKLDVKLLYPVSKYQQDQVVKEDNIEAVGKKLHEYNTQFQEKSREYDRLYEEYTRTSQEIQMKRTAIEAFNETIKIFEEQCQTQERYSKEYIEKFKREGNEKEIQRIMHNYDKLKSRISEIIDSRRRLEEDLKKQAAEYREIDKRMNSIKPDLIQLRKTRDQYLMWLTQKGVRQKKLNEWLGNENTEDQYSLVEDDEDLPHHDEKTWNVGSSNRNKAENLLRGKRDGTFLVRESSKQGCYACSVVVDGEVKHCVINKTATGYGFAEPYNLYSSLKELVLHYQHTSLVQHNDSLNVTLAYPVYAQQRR
Outline: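 Radiometric read-out: 33P-labelled PIP3 product captured on WGA SPA beads and counted, with IC50 fitted from percent activity relative to DMSO control. Enzyme (3.4 nM) was incubated 120 min at room temperature with 20 μM PIP2 and 2 μM ATP at pH 6.7, 2% DMSO.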

SMILES | IC50 [1] | IC50 [2] | IC50 [3] | IC50 ([1]; Homo sapiens)
Cc1ccc(S(=O)(=O)NC23CC(c4nccs4)(C2)C3)cc1-c1cnc2c(N)ncnn12 [Example 114, 3-(4-Aminoimidazo[1,2-f][1,2,4]triazin-7-yl)-4-methyl-N-(3-(thiazol-2-yl)bicyclo[1.1.1]pentan-1-yl)benzenesulfonamide trifluoroacetate salt] | 100 to 500 nM | < 100 nM | 100 to 500 nM | 
COC(=O)NC12CC(NS(=O)(=O)c3ccc(C)c(-c4cnc5c(N)ncnn45)c3)(C1)C2 [Example 115, Methyl 3-(3-(4-aminoimidazo[1,2-f][1,2,4]triazin-7-yl)-4-methylphenylsulfonamido)bicyclo[1.1.1]pentan-1-ylcarbamate trifluoroacetate salt] | 100 to 500 nM | < 100 nM | 500 to 2000 nM | 
Cc1ccc(S(=O)(=O)NC23CC(N4CCOCC4)(C2)C3)cc1-c1cnc2c(N)ncnn12 [Example 116, 3-(4-Aminoimidazo[1,2-f][1,2,4]triazin-7-yl)-4-methyl-N-(3-morpholinobicyclo[1.1.1]pentan-1-yl)benzenesulfonamide trifluoroacetate salt] | 100 to 500 nM | < 100 nM | 500 to 2000 nM | 
Cc1ccc(S(=O)(=O)NC23CC(C)(C2)C3)cc1-c1cnc2c(N)ncnn12 [Example 117, 3-(4-Aminoimidazo[1,2-f][1,2,4]triazin-7-yl)-4-methyl-N-(3-methylbicyclo[1.1.1]pentan-1-yl)benzenesulfonamide] | 100 to 500 nM | < 100 nM | 500 to 2000 nM | 
Cc1ccc(S(=O)(=O)NCC2(CO)CCOCC2)cc1-c1cnc2c(N)ncnn12 [Example 121, 3-(4-aminoimidazo[2,1-f][1,2,4]triazin-7-yl)-N-{[4-(hydroxymethyl)tetrahydro-2H-pyran-4-yl]methyl}-4-methylbenzenesulfonamide] |  | 100 to 500 nM | > 2000 nM | > 1000 nM
Cc1ccc(S(=O)(=O)N[C@H]2CC[C@H](C(C)(C)O)CC2)cc1-c1cnc2c(N)ncnn12 [Example 125, 3-(4-aminoimidazo[2,1-f][1,2,4]triazin-7-yl)-N-[trans-4-(1-hydroxy-1-methylethyl)cyclohexyl]-4-methylbenzenesulfonamide] |  | < 100 nM | 500 to 2000 nM | > 1000 nM
Cc1ccc(S(=O)(=O)N2CC(CO)C2)cc1-c1cnc2c(N)ncnn12 [Example 128, (1-((3-(4-aminoimidazo[2,1-f][1,2,4]triazin-7-yl)-4-methylphenyl)sulfonyl)azetidin-3-yl)methanol] |  | < 100 nM | 100 to 500 nM | 100 to 500 nM
Cc1ccc(S(=O)(=O)NCCN2CCS(=O)(=O)CC2)cc1-c1cnc2c(N)ncnn12 [Example 129, 3-(4-aminoimidazo[2,1-f][1,2,4]triazin-7-yl)-N-(2-(1,1-dioxidothiomorpholino)ethyl)-4-methylbenzenesulfonamide] |  | < 100 nM | 100 to 500 nM | < 100 nM
Cc1ccc(S(=O)(=O)N2CC(F)C2)cc1-c1cnc2c(N)ncnn12 [Example 131, 7-(5-((3-fluoroazetidin-1-yl)sulfonyl)-2-methylphenyl)imidazo[2,1-f][1,2,4]triazin-4-amine] |  | 100 to 500 nM | 500 to 2000 nM | > 1000 nM
Cc1ccc(S(=O)(=O)NC2CCCCC2O)cc1-c1cnc2c(N)ncnn12 (stereo not drawn) [Example 137, 3-(4-aminoimidazo[2,1-f][1,2,4]triazin-7-yl)-N-(2-hydroxycyclohexyl)-4-methylbenzenesulfonamide] |  | < 100 nM | 500 to 2000 nM | > 1000 nM
Cc1ccc(S(=O)(=O)N[C@H]2C[C@](O)(C(F)(F)F)C2)cc1-c1cnc2c(N)ncnn12 [Example 140, 3-(4-aminoimidazo[2,1-f][1,2,4]triazin-7-yl)-N-((1S,3S)-3-hydroxy-3-(trifluoromethyl)cyclobutyl)-4-methylbenzenesulfonamide] | 100 to 500 nM | < 100 nM | 500 to 2000 nM | 

Now from value to compound:

IC50 [1] | IC50 [2] | IC50 [3] | IC50 ([1]; Homo sapiens) | SMILES
100 to 500 nM | < 100 nM | 500 to 2000 nM |  | Cc1ccc(S(=O)(=O)NC23CC(Cn4cncn4)(C2)C3)cc1-c1cnc2c(N)ncnn12 [Example 113, N-(3-((1H-1,2,4-triazol-1-yl)methyl)bicyclo[1.1.]pentan-1-yl)-3-(4-aminoimidazo[1,2-f][1,2,4]triazin-7-yl)-4-methylbenzenesulfonamide trifluoroacetate salt]
> 1000 nM | < 100 nM | 100 to 500 nM |  | Cc1ccc(S(=O)(=O)N(C)C23CC(N)(C2)C3)cc1-c1cnc2c(N)ncnn12 [Example 118, N-(3-aminobicyclo[1.1.1]pentan-1-yl)-3-(4-aminoimidazo[1,2-f][1,2,4]triazin-7-yl)-N,4-dimethylbenzenesulfonamide trifluoroacetate salt]
 | < 100 nM | 500 to 2000 nM | 100 to 500 nM | Cc1ccc(S(=O)(=O)NC2CCC(F)(F)CC2)cc1-c1cnc2c(N)ncnn12 [Example 122, 3-(4-aminoimidazo[2,1-f][1,2,4]triazin-7-yl)-N-(4,4-difluorocyclohexyl)-4-methylbenzenesulfonamide]
 | < 100 nM | 500 to 2000 nM | 500 to 1000 nM | Cc1ccc(S(=O)(=O)N[C@H]2COC[C@@H]2O)cc1-c1cnc2c(N)ncnn12 [Example 123, 3-(4-aminoimidazo[2,1-f][1,2,4]triazin-7-yl)-N-[(3S,4R)-4-hydroxytetrahydrofuran-3-yl]-4-methylbenzenesulfonamide]
100 to 500 nM | < 100 nM | 100 to 500 nM |  | Cc1ccc(S(=O)(=O)N[C@H]2CC[C@](O)(C(F)(F)F)CC2)cc1-c1cnc2c(N)ncnn12 [Example 124, 3-(4-aminoimidazo[2,1-f][1,2,4]triazin-7-yl)-N-[cis-4-hydroxy-4-(trifluoromethyl)cyclohexyl]-4-methylbenzenesulfonamide]
 | < 100 nM | 500 to 2000 nM | 100 to 500 nM | Cc1ccc(S(=O)(=O)NC2CC(CO)(CO)C2)cc1-c1cnc2c(N)ncnn12 [Example 126, 3-(4-aminoimidazo[2,1-f][1,2,4]triazin-7-yl)-N-[3,3-bis(hydroxymethyl)cyclobutyl]-4-methylbenzenesulfonamide]
100 to 500 nM | < 100 nM | 500 to 2000 nM |  | Cc1ccc(S(=O)(=O)N[C@]2(C)CC[C@@H](O)CC2)cc1-c1cnc2c(N)ncnn12 [Example 127, 3-(4-aminoimidazo[2,1-f][1,2,4]triazin-7-yl)-N-(trans-4-hydroxy-1-methylcyclohexyl)-4-methylbenzenesulfonamide]
 | < 100 nM | 500 to 2000 nM | 500 to 1000 nM | Cc1ccc(S(=O)(=O)NCC2CCC(F)(F)CC2)cc1-c1cnc2c(N)ncnn12 [Example 130, 3-(4-aminoimidazo[2,1-f][1,2,4]triazin-7-yl)-N-((4,4-difluorocyclohexyl)methyl)-4-methylbenzenesulfonamide]
 | < 100 nM | 100 to 500 nM | 100 to 500 nM | Cc1ccc(S(=O)(=O)NC2CC(F)(F)C2)cc1-c1cnc2c(N)ncnn12 [Example 132, 3-(4-aminoimidazo[2,1-f][1,2,4]triazin-7-yl)-N-(3,3-difluorocyclobutyl)-4-methylbenzenesulfonamide]
> 1000 nM | < 100 nM | 500 to 2000 nM |  | Cc1ccc(S(=O)(=O)N[C@H]2CC[C@@](C)(O)CC2)cc1-c1cnc2c(N)ncnn12 [Example 133, 3-(4-aminoimidazo[2,1-f][1,2,4]triazin-7-yl)-N-((1S,4S)-4-hydroxy-4-methylcyclohexyl)-4-methylbenzenesulfonamide]
 | < 100 nM | 500 to 2000 nM | 100 to 500 nM | Cc1ccc(S(=O)(=O)NCC2(F)CCOCC2)cc1-c1cnc2c(N)ncnn12 [Example 134, 3-(4-aminoimidazo[2,1-f][1,2,4]triazin-7-yl)-N-((4-fluorotetrahydro-2H-pyran-4-yl)methyl)-4-methylbenzenesulfonamide]
 | < 100 nM | 100 to 500 nM | > 1000 nM | Cc1ccc(S(=O)(=O)NCC2CCS(=O)(=O)C2)cc1-c1cnc2c(N)ncnn12 (stereo not drawn) [Example 135, 3-(4-aminoimidazo[2,1-f][1,2,4]triazin-7-yl)-N-((1,1-dioxidotetrahydrothiophen-3-yl)methyl)-4-methylbenzenesulfonamide]
 | 100 to 500 nM | > 2000 nM | > 1000 nM | Cc1ccc(S(=O)(=O)NCC2CCN(C(=O)C3CC3)CC2)cc1-c1cnc2c(N)nccn12 [Example 136, 3-(8-aminoimidazo[1,2-a]pyrazin-3-yl)-N-((1-(cyclopropanecarbonyl)piperidin-4-yl)methyl)-4-methylbenzenesulfonamide]
 | < 100 nM | 500 to 2000 nM | > 1000 nM | Cc1ccc(S(=O)(=O)NCCN2CCCC2=O)cc1-c1cnc2c(N)ncnn12 [Example 138, 3-(4-aminoimidazo[2,1-f][1,2,4]triazin-7-yl)-4-methyl-N-(2-(2-oxopyrrolidin-1-yl)ethyl)benzenesulfonamide]
 | < 100 nM | 500 to 2000 nM | > 1000 nM | Cc1ccc(S(N)(=O)=O)cc1-c1cnc2c(N)ncnn12 [Example 139, 3-(4-aminoimidazo[2,1-f][1,2,4]triazin-7-yl)-4-methylbenzenesulfonamide]
